Data on eleven molecules can be found in patent US9029368B2, “3,7-disubstituted octahydro-2H-pyrido[4,3-E][1,3]oxazin-2-one antibiotics” (Actelion Pharmaceuticals Ltd., priority 2011, dated 2015).

SMILES strings stand for the structures. Values after ≈ are worked out from the molar mass of the structure shown.

In the first assay the test system is S. aureus 29213. The assay can be described thus: Bacterial growth minimal inhibitory concentrations (microdilution in cation-adjusted Mueller-Hinton Broth, CLSI M7-A7). As to conditions: Staphylococcus aureus, 29213, microdilution method. Format: cell-based. How it is done:
Bacterial Growth Minimal Inhibitory Concentrations: Minimal inhibitory concentrations (MICs; mg/l) were determined in cation-adjusted Mueller-Hinton Broth by a microdilution method following the description given in “Methods for Dilution Antimicrobial Susceptibility Tests for Bacteria that Grow Aerobically”, Approved standard, 7th ed., Clinical and Laboratory Standards Institute (CLSI) Document M7-A7, Wayne, Pa., USA, 2006. All Example compounds were tested against several Gram positive and Gram negative bacteria.
With `COc1ccc2ccc(=O)n(CCN3CC[C@@H]4CN(c5ccc6c(c5)NC(=O)CS6)C(=O)O[C@H]4C3)c2n1` (racemic) [Example 31, rac-(4aR*,8aR*)-7-(2-(7-methoxy-2-oxo-1,8-naphthyridin-1(2H)-yl)ethyl)-3-(3-oxo-3,4-dihydro-2H-benzo[b][1,4]thiazin-6-yl)octahydro-2H-pyrido[4,3-e][1,3]oxazin-2-one], the MIC was not above 0.031 µg/mL.

As for `COc1ccc2ncc(F)c(C(O)CN3CC[C@@H]4CN(c5ccc6c(c5)NC(=O)CO6)C(=O)O[C@H]4C3)c2n1` (mixture of isomers) [Example 32, (4aR*,8aR*)-7-((2RS)-2-(3-fluoro-6-methoxy-1,5-naphthyridin-4-yl)-2-hydroxyethyl)-3-(3-oxo-3,4-dihydro-2H-benzo[b][1,4]oxazin-6-yl)octahydro-2H-pyrido[4,3-e][1,3]oxazin-2-one], inhibition of growth (MIC) required 0.125 µg/mL (≈ 0.239 µM). `COc1ccc2ccc(=O)n(CCN3CC[C@@H]4CN(c5ccc6c(c5)NC(=O)CO6)C(=O)O[C@H]4C3)c2n1` (racemic) [Example 34, rac-(4aR*,8aR*)-7-(2-(7-methoxy-2-oxo-1,8-naphthyridin-1(2H)-yl)ethyl)-3-(3-oxo-3,4-dihydro-2H-benzo[b][1,4]oxazin-6-yl)octahydro-2H-pyrido[4,3-e][1,3]oxazin-2-one] showed an MIC of 0.25 µg/mL (≈ 0.495 µM). In the case of `O=C1O[C@H]2CN(C[C@H]3Cc4c(F)ccc5ccc(=O)n3c45)CC[C@@H]2CN1c1ccc2c(c1)OCCO2` (relative stereo) [Example 29, (R)-2-[(4aR*,8aR*)-3-(2,3-dihydro-benzo[1,4]dioxin-6-yl)-2-oxo-octahydro-pyrido[4,3-e][1,3]oxazin-7-ylmethyl]-9-fluoro-1,2-dihydro-pyrrolo[3,2,1-ij]quinolin-4-one], inhibition of growth (MIC) required 0.25 µg/mL (≈ 0.509 µM). On the same count and under the same terms, then `COc1ccc2ncc(F)c(CCN3CC[C@@H]4CN(c5ccc6c(c5)OCCO6)C(=O)O[C@H]4C3)c2n1` (single isomer, unassigned) [Example 1], with not above 0.031 µg/mL; and `COc1ccc2ncc(F)c(CCN3CC[C@H]4CN(c5ccc6c(c5)OCCO6)C(=O)O[C@@H]4C3)c2n1` (single isomer, unassigned) [Example 2], with not above 0.031 µg/mL. The molecule `COc1ccc2ncc(F)c([C@H](O)CN3CC[C@H]4CN(c5ccc6c(c5)OCCO6)C(=O)O[C@@H]4C3)c2n1` (single isomer, unassigned) [Example 14] had an MIC not above 0.031 µg/mL. On the same count and under the same terms, then `COc1ccc2ncc(F)c([C@H](O)CN3CC[C@@H]4CN(c5ccc6c(c5)OCCO6)C(=O)O[C@H]4C3)c2n1` (single isomer, unassigned) [Example 15], with 0.063 µg/mL (≈ 0.123 µM). For `COc1ccc2ncc(F)c(CCN3CC[C@@H]4CN(c5ccc6c(n5)NC(=O)CS6)C(=O)O[C@H]4C3)c2n1` (single isomer, unassigned) [Example 20], the MIC was not above 0.031 µg/mL. Molecule `COc1ccc2ncc(F)c(CCN3CC[C@H]4CN(c5ccc6c(n5)NC(=O)CS6)C(=O)O[C@@H]4C3)c2n1` (single isomer, unassigned) [Example 21] came in with a minimal inhibitory concentration (MIC) not above 0.031 µg/mL.

The same assay, now with this note: microdilution method.
For the molecule `O=C1COc2ccc(N3C[C@H]4CCN(C[C@H]5Cc6c(F)ccc7ccc(=O)n5c67)C[C@@H]4OC3=O)nc2N1` (relative stereo) [Example 33, (4aR*,8aR*)-7-0(R)-9-fluoro-4-oxo-2,4-dihydro-1H-pyrrolo[3,2,1-ij]quinolin-2-yl)methyl)-3-(3-oxo-3,4-dihydro-2H-pyrido[3,2-b][1,4]oxazin-6-yl)octahydro-2H-pyrido[4,3-e][1,3]oxazin-2-one], the “MIC for S. aureus 29213” value is 0.125 µg/mL.
